For orientation: IC50 means the concentration that gives 50% inhibition.

The values that follow come from patent US10357493B2, “Metalloenzyme inhibitor compounds” (Selenity Therapeutics (Bermuda), Ltd., priority 2017, dated 2019).

One test has as its target HDAC6 (Homo sapiens (Human), UniProt Q9UBN7). The test is described as follows: HDAC6 enzymatic assay. Format: biochemical. To be noted: read-out: Human HDAC6 IC50. The gist of the method: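 Following a 17 hour room-temperature incubation of 2 ng HDAC6 with 10 uM substrate and compound, 50 μl developer was added for another 20 minutes, and fluorescence (excitation 360 nm, emission 460 nm) was recorded. Activity was normalized to no-compound (100%) and no-enzyme (0%) wells, and IC50 came from sigmoidal dose-response fitting in Graphpad Prism.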

A further test addresses HDAC1 (Homo sapiens (Human), UniProt Q13547). The test is described as follows: HDAC1 enzymatic assay. The test is classed as biochemical. To be noted: read-out: Human HDAC1 IC50. In a few lines: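 Compound inhibition of human HDAC1 (0.5 ng enzyme, 10 uM substrate) was assessed by fluorescence after developer treatment, excitation 360 nm and emission 460 nm. Percent activity was normalized to no-compound (100%) and no-enzyme (0%) controls, plotted against concentration, and fitted to a sigmoidal dose-response curve in Graphpad Prism to obtain IC50 at half-maximal activity.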

The structures appear in SMILES notation.

Sequence of HDAC1 (Q13547 whole entry): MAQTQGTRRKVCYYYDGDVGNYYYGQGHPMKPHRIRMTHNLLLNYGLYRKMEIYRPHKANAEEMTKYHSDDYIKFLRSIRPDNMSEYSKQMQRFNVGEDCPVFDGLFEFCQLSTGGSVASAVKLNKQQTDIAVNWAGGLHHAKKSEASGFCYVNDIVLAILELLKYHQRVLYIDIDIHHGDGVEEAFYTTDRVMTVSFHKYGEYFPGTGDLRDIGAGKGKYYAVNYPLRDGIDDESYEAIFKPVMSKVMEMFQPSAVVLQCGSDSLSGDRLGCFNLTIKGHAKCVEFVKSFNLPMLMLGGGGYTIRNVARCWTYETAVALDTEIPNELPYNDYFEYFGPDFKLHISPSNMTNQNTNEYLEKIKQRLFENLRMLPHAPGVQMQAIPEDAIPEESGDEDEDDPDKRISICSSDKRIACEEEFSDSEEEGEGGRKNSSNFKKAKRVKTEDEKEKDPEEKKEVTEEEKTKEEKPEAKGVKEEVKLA
Sequence of HDAC6 (Q9UBN7 whole entry): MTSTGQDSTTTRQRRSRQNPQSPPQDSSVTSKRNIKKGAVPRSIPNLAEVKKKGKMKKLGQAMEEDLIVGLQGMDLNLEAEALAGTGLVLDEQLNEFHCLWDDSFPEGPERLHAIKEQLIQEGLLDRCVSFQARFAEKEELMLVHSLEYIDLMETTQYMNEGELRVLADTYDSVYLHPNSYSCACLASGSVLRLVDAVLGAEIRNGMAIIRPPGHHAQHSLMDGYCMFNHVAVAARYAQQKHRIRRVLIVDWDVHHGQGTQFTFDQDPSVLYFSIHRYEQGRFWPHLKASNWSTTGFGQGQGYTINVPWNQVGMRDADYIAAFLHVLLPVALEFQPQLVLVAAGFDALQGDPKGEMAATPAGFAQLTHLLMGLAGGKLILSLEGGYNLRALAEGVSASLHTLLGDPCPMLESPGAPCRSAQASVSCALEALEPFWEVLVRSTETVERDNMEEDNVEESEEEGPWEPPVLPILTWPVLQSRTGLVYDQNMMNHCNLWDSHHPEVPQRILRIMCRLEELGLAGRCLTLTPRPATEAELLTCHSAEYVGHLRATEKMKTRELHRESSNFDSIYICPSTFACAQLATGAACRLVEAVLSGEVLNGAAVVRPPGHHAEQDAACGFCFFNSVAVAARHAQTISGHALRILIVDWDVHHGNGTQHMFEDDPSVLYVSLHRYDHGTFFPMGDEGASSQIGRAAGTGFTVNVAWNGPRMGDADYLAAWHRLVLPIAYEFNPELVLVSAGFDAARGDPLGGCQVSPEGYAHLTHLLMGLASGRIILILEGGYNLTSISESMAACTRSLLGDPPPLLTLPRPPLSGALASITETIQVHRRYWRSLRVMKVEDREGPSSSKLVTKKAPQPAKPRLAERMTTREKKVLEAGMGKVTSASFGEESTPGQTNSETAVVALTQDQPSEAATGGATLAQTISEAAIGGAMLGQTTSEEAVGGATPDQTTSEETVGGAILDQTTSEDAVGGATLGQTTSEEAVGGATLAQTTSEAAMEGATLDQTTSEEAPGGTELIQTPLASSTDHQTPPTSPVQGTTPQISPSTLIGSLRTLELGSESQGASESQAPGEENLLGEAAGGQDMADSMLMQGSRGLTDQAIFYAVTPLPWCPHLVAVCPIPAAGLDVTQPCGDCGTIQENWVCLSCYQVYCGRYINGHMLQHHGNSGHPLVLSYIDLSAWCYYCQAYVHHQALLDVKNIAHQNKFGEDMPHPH

Consider `COc1ccc(C2(Nc3ncc(-c4nnc(C(F)F)o4)cn3)CC2)cc1` [Example 44, 5-(5-(difluoromethyl)-1,3,4-oxadiazol-2-yl)-N-(1-(4-methoxyphenyl)cyclopropyl)pyrimidin-2-amine], for which the half-inhibitory concentration (IC50) at HDAC6 is 44 nM; at HDAC1, more than 30000 nM.

For `FC(F)c1nnc(-c2cnc(NC3(c4ccc(C(F)(F)F)cc4)CC3)nc2)o1` [Example 45, 5-(5-(difluoromethyl)-1,3,4-oxadiazol-2-yl)-N-(1-(4-(trifluoromethyl)phenyl)cyclopropyl) pyrimidin-2-amine], the figures for the IC50 on HDAC6 and on HDAC1 were 64 nM and more than 30000 nM, respectively.

In the case of `COc1ccccc1C1(Nc2ncc(-c3nnc(C(F)F)o3)cn2)CC1` [Example 46, 5-(5-(difluoromethyl)-1,3,4-oxadiazol-2-yl)-N-(1-(2-methoxyphenyl)cyclopropyl)pyrimidin-2-amine], the half-inhibitory concentration (IC50) on HDAC6 was 23 nM; at HDAC1, more than 30000 nM.

Consider `FC(F)c1nnc(-c2cnc(NC3(c4ccc(Br)cc4)CC3)nc2)o1` [Example 47, N-(1-(4-bromophenyl)cyclopropyl)-5-(5-(difluoromethyl)-1,3,4-oxadiazol-2-yl)pyrimidin-2-amine], for which the concentration for half-maximal inhibition (IC50) on HDAC6 is 27 nM; on HDAC1, more than 30000 nM.

Take `N#Cc1ccc(C2(Nc3ncc(-c4nnc(C(F)F)o4)cn3)CC2)cc1` [Example 48, 4-(1-((5-(5-(difluoromethyl)-1,3,4-oxadiazol-2-yl)pyrimidin-2-yl)amino)cyclopropyl) benzonitrile]: the IC50 at HDAC6 is 46 nM; at HDAC1, more than 30000 nM.

As to `FC(F)c1nnc(-c2cnc(NC3(c4cccc(C(F)(F)F)c4)CC3)nc2)o1` [Example 49, 5-(5-(difluoromethyl)-1,3,4-oxadiazol-2-yl)-N-(1-(3-(trifluoromethyl)phenyl)cyclopropyl) pyrimidin-2-amine], the results for the 50% inhibitory concentration (IC50) on HDAC6 and at HDAC1 were 16 nM and more than 30000 nM, respectively.

Turning to `FC(F)c1nnc(-c2cnc(NC3(c4ccc(Cl)cc4)CC3)nc2)o1` [Example 50, N-(1-(4-chlorophenyl)cyclopropyl)-5-(5-(difluoromethyl)-1,3,4-oxadiazol-2-yl)pyrimidin-2-amine], the results for the concentration for half-maximal inhibition (IC50) on HDAC6 and on HDAC1 were 30 nM and more than 30000 nM, respectively.

For the compound `FC(F)c1nnc(-c2cnc(NC3(c4cccc(Cl)c4)CC3)nc2)o1` [Example 51, N-(1-(3-chlorophenyl)cyclopropyl)-5-(5-(difluoromethyl)-1,3,4-oxadiazol-2-yl)pyrimidin-2-amine], the IC50 at HDAC6 was 15 nM; on HDAC1 it was more than 30000 nM.

With `FC(F)c1nnc(-c2cnc(NC3(c4ccccc4Cl)CC3)nc2)o1` [Example 52, N-(1-(2-chlorophenyl)cyclopropyl)-5-(5-(difluoromethyl)-1,3,4-oxadiazol-2-yl)pyrimidin-2-amine], the IC50 was 6 nM on HDAC6 and more than 30000 nM on HDAC1.

Take `FC(F)c1nnc(-c2cnc(NC3(c4cccc(OC(F)(F)F)c4)CC3)nc2)o1` [Example 53, 5-(5-(difluoromethyl)-1,3,4-oxadiazol-2-yl)-N-(1-(3-(trifluoromethoxy)phenyl)cyclopropyl) pyrimidin-2-amine]: the IC50 is 23 nM at HDAC6 and more than 30000 nM at HDAC1.

`FC(F)c1nnc(-c2cnc(NC3(c4ccc(OC(F)(F)F)cc4)CC3)nc2)o1` [Example 54, 5-(5-(difluoromethyl)-1,3,4-oxadiazol-2-yl)-N-(1-(4-(trifluoromethoxy)phenyl)cyclopropyl) pyrimidin-2-amine]: the 50% inhibitory concentration (IC50) on HDAC6 was 22 nM; at HDAC1 it was more than 30000 nM.

Consider `FC(F)c1nnc(-c2cnc(NC3(c4ccccc4OC(F)(F)F)CC3)nc2)o1` [Example 55, 5-(5-(difluoromethyl)-1,3,4-oxadiazol-2-yl)-N-(1-(2-(trifluoromethoxy)phenyl)cyclopropyl) pyrimidin-2-amine], for which the IC50 is 20 nM at HDAC6 and more than 30000 nM at HDAC1.
